This note sets out measurements from ChEMBL document CHEMBL4813934, “Investigation of Selected Flavonoid Derivatives as Potent FLT3 Inhibitors for the Potential Treatment of Acute Myeloid Leukemia” (J Nat Prod, 2021).

pIC50: −log10 of the molar value. Some results are limits rather than exact numbers.

The target in test [1] is T1, Receptor-type tyrosine-protein kinase FLT3 (Homo sapiens, UniProt P36888).
T1 sequence (P36888 whole entry): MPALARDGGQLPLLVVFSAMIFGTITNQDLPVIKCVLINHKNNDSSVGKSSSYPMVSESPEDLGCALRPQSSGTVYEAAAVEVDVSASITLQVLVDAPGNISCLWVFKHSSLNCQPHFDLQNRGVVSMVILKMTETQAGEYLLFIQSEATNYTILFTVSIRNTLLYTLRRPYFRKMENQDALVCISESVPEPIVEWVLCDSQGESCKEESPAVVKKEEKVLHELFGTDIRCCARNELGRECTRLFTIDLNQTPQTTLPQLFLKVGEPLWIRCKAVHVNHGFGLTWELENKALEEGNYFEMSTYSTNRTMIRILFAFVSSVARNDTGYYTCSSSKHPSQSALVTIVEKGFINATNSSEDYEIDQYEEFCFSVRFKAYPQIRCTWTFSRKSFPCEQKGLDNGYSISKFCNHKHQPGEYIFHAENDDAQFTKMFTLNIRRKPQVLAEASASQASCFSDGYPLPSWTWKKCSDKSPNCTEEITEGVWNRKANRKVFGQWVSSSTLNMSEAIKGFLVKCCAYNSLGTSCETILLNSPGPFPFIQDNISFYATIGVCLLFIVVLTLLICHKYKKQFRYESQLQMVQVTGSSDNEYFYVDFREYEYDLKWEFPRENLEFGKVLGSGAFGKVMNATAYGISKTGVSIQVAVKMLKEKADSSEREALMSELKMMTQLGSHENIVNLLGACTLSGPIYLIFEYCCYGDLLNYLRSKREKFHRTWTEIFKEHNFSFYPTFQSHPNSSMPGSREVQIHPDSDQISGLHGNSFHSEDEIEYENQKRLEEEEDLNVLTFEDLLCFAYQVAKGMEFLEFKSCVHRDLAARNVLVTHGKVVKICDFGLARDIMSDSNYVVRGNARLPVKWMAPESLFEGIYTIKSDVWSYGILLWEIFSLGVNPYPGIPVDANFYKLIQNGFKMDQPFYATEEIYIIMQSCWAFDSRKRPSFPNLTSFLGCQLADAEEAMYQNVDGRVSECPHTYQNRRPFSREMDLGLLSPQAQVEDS
In words: Inhibition of recombinant His-tagged human FLT3 (564 to 958 residues) expressed in baculovirus expression system using tyr 02 as substrate incubated for 1 hr by Z'-LYTE assay.

For test [2], the target named is Receptor-type tyrosine-protein kinase FLT3 (Homo sapiens) (UniProt P36888). In words: Inhibition of recombinant His-tagged human FLT3 (564 to 958 residues) expressed in baculovirus expression system at 10 uM using tyr 02 as substrate incubated for 1 hr by Z'-LYTE assay relative to control.
The test system of test [3] is MV4-11. In words: Cytotoxicity against human MV4-11 cells assessed as reduction in cell viability measured after 72 hrs by MTT assay. The format is functional, cell-based. Particulars: MV4-11, 72 h.
Test [4] deals with MOLM-13. In words: Cytotoxicity against human MOLM-13 cells assessed as reduction in cell viability measured after 72 hrs by MTT assay. Type of test: functional, cell-based. Particulars: MOLM-13, 72 h.
The target in test [5] is Receptor-type tyrosine-protein kinase FLT3 (Homo sapiens, UniProt P36888, ITD). In words: Inhibition of recombinant N-terminal GST/His6-tagged human FLT3 ITD mutant (571 to 993 residues) expressed in Sf9 insect cells incubated for 1 hr by LanthaScreen assay.
The target of test [6] is Receptor-type tyrosine-protein kinase FLT3 (Homo sapiens, UniProt P36888, D835Y). In words: Inhibition of recombinant His-tagged human FLT3 D835Y mutant (564 to 958 residues) expressed in baculovirus expression system using tyr 02 as substrate incubated for 1 hr by Z'-LYTE assay.

As to `COc1ccc(-c2cc(=O)c3c(O)cc(O)cc3o2)cc1` [ACACETIN], the pIC50 in test [1] is 6.06; in test [3] it was 5.17; in test [4] it was 5.04; in test [5], 6.68; in test [6] it was 6.00. In addition, the inhibition in test [2] was above 80%.

On to `COc1ccc(-c2cc(=O)c3c(O)c(OC)c(OC)cc3o2)cc1O` [EUPATORIN], for which the pIC50 in test [1] is 5.96. Besides, the inhibition in test [2] is above 80%.

In the case of `COc1cc(O)c2c(=O)cc(-c3ccc(O)cc3)oc2c1` [GENKWANIN], the pIC50 in test [1] is 5.77. In test [2], the inhibition was above 80%.
